Data published in patent US20170312253A1 (The Third Affiliated Hospital, Third Military Medical …, priority 2014, published 2017).

How the values were obtained:
[1] = test system: dendritic spines of pyramidal cells in hippocampus CA1; test: Golgi staining, dendritic spines; assay type: in vivo; settings: AD mice
Description: (§1) APPswe/PS1DE9 (AD) transgenic mice were purchased from Jackson Laboratory, USA (No. 005864), raised in the SPF grade animal house of The Third Affiliated Hospital of The Third Military Medical University. All the processes and correlated experiments applied to the mice were approved and filed with the Animal Ethics Committee of the Third Military Medical University. […] Alternatively, the daily dose for the prophylactic group may be 6.4 mg/kg, and the daily dose for the treatment group may be 12.8 mg/kg. Administration from 3-month old to 9-month old is the prophylactic test, and administration from 9-month old to 12-month old is the therapeutic test After reaching a stated time, the mice in each group received behavioral tests according to the method in the follows. Three mice in each group were taken for Golgi staining. The remaining mice were overly anaesthetized to receive brain anatomy. One side of the cerebral hemisphere was frozen and then for a biochemical analysis, and the other side of the cerebral hemisphere was fixed with 4% paraform for a histological analysis.
After overly anesthetized, the animals received heart perfusions with normal saline containing 0.5% nitrous acid, 4% paraform, and Golgi dye liquor, successively. […]

Aβ 40, Aβ 42 = test: ELISA of Aβ 40, Aβ 42 in brain extracts (TBS, SDS, FA); assay type: in vivo; settings: AD mice, 2% SDS and FA extracts
Description: as §1
(§2) After homogenating the frozen brain tissues, extraction was conducted with TBS, SDS and formic acid successively. The TBS, SDS and formic acid extracts represent soluble Aβ, loosen senile plaques and compact senile plaques, respectively. […]

α-secretase = α-secretase activity in brain tissues (kit); assay type: in vivo; settings: AD mice brain
Description: as §1, §2

[2] = test system: Aβ induced oxidative stress; test: ROS detection; assay type: cell-based
Description: The ROS detection was performed according to the scheme provided by the manufacturer (Cell Biolabs Inc).

RAGE = test: Western blot of Aβ metabolizing enzymes in brain: RAGE; assay type: in vivo; settings: AD mice brain
Description: (§3) APPswe/PS1DE9 (AD) transgenic mice were purchased from Jackson Laboratory, USA (No. 005864), raised in the SPF grade animal house of The Third Affiliated Hospital of The Third Military Medical University. All the processes and correlated experiments applied to the mice were approved and filed with the Animal Ethics Committee of the Third Military Medical University. […] Alternatively, the daily dose for the prophylactic group may be 6.4 mg/kg, and the daily dose for the treatment group may be 12.8 mg/kg. […]
(§4) The enzymes related with Aβ formation and degradation their molecule levels, the levels of hyperphosphprylated Tau proteins, and the levels of synaptic plasticity correlated proteins were all detected with Western blot. […] The blotting was detected with the following antibodies: APP C terminal antibody (171610, Millipore), BACE1 antibody (Millipore), Aβ antibody (6E10, Abcam), Nepriiysin antibody (Millipore), RAGE antibody (Millipore), LRP antibody (5A6, Calbiochem), IDE antibody (epitomics), phosphorylated Tau protein antibody, including pS396 (Signalway), pT231 (Signalway), pS199 (epitomics), pS262 (Abcam), SNAP25 antibody (Millipore), Synaptophysin antibody (Millipore), Synapsin I antibody (Millipore), VAMP1 antibody (Millipore), PSD95 antibody (Millipore), F-actin antibody (Actin) (Sigma-Aldrich). […]

Gsk-3β [3] = molecular target: T1, Gsk-3β (Mus musculus, UniProt Q9WV60); test: Gsk-3β activity in the brain of AD mice; assay type: in vivo
T1 construct: from tissue; host or cells: brain of APPswe/PS1DE9 mice
T1 sequence (Q9WV60 whole entry): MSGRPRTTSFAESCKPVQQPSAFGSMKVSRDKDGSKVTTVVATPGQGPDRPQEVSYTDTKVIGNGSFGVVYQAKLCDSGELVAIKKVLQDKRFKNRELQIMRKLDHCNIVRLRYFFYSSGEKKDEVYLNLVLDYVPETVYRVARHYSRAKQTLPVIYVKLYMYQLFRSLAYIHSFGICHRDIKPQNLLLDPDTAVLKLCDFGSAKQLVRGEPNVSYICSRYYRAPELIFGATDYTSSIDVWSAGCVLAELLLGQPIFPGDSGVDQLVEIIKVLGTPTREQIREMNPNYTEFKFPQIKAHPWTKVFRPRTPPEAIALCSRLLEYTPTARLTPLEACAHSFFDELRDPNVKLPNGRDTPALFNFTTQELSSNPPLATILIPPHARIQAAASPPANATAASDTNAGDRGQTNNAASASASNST
Description: as §1

Gsk-3β [4] = molecular target: Gsk-3β (Homo sapiens, UniProt P49841); test: In vitro test of Gsk-3β activities
Chain of Gsk-3β (Homo sapiens, UniProt P49841) (P49841 whole entry, species assumed): as the sequence (Q9WV60 whole entry) above, with P390T, A392T, T400A, A402T counted along it

SH-SY5Y cells = test: MTT cell viability assay, Aβ-treated SH-SY5Y cells; assay type: cell-based; settings: 1 μM Aβ oligomers, 24 h, dose-dependent
Description: The SH-SY5Y cell line was purchased from the Peking Union Hospital Cell Bank, cultured in a humidified incubator under 5% CO2 and 37° C., A MTT cell viability assay was performed according to the instructions in the kit (Sigma). […] The optical density values were determined at a wavelength of 563 nm (Synergy H4, Bio Tek). The neurite growth test was performed according to the method described in the prior documents (see, for example, Wang, Y. J., et al., Effects of proNGF on neuronal viability, neurite growth and amyloid-beta metabolism. Neurotox Res, 2010, 17(3): p. 257-67).

[5] = test system: oxidation level in the brain; test: Oxidation level in brain tissues, DNPH Western blotting; assay type: in vivo; settings: AD mice
Description: as §1, with “The remaining mice were overly anaesthetized to receive brain anatomy. One side of the cerebral hemisphere was frozen and then for a biochemical analysis, and the other side of the cerebral hemisphere was fixed with 4% paraform for a histological analysis.” left out
The carbonyl level of the proteins in the tissue reflects the oxidation level in the tissue. DNPH is reacted with the carbonyl of the proteins to form a protein-DNP hydrazone complex, and the level of the complex can he detected with DNPH antibodies so as to assess the oxidation level in the tissue, A 5 μl sample of fresh brain tissues was co-incubated with 12% SDS and a 10 μl DNPH working solution at room temperature for 20 min. […] Samples containing 15 μg total proteins were loaded and detected with Western blot. […]

[6] = test system: synapse associated proteins; test: Western blot of synapse associated proteins; assay type: in vivo; settings: AD mice vs control group
Description: as §3, §4

## CC1=NN(c2ccccc2)C(=O)C1 [Edaravone, 3-methyl-1-phenyl-2-pyrazolin-5-one]
[1]
  numbers of the dendritic spines: also significantly increased
Aβ 40, Aβ 42
  Aβ 40, Aβ 42 levels in brain extracts: significantly reduce the levels of Aβ at different, aggregation states
α-secretase
  activity of α-secretase: increase of the activity of α-secretase
[2]
  Aβ induced oxidative stress (ROS test): reverse the Aβ induced oxidative stress
RAGE
  influence on RAGE: no influence
Gsk-3β [3]
  activity of Gsk-3β: inhibit the activity of Gsk-3β
Gsk-3β [4]
  Gsk-3β activities in vitro: inhibits the Gsk-3β activities
SH-SY5Y cells
  cell survival rate: cell survival rate increases significantly
[5]
  oxidation level in the brain: significantly reduces the oxidation level
[6]
  expressions of the synapse associated proteins: much higher than in the control group
